Broadly, the Ki is the dissociation constant of the complex between target and ligand, obtained from inhibition or displacement. A high value points to weaker binding. A word on the IC50: it is the concentration needed to halve the response being measured. A higher IC50 goes with weaker potency. Usually Papp stands for a coefficient for how fast a substance crosses the barrier.

We go through three compounds from ChEMBL document CHEMBL5032516, “Synthesis and structural characterization of a monocarboxylic inhibitor for GRB2 SH2 domain” (Bioorg Med Chem Lett, 2021).

The target in data set [1] is T1, Growth factor receptor-bound protein 2 (Homo sapiens, UniProt P62993).
A short description of data set [2]: Permeability of compound assessed as percentage transport at 500 uM after 5 hrs by PAMPA assay. The data set is classed as ADME. A general note: The PAMPA barrier holds no transporters, so it reflects passive diffusion.
Data set [3] deals with T1, Growth factor receptor-bound protein 2. Briefly: Displacement of FITC-Ahx-PVPePYINQSVPKRK-NH2 from N-terminal His6-tagged human full length GRB2 (1 to 217 residues) expressed in Escherichia coli by fluorescence anisotropy assay.
The nature of data set [4]: Apparent permeability of compound at 500 uM after 5 hrs by PAMPA assay. Format: ADME.

Structures are written as SMILES. Bounds are passed on as bounds.

T1 sequence (P62993 whole entry, the tested form may be a part): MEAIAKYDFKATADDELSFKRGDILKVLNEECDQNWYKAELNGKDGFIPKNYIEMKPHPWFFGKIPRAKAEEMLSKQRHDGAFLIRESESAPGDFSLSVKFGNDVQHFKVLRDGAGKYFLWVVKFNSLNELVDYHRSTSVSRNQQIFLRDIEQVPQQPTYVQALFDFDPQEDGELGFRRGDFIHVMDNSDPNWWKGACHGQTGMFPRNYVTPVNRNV

Compound `NC(=O)C[C@@H]1NC(=O)C2(CCCCC2)NC(=O)C[C@@H](c2ccc(CC(=O)O)cc2)/C=C/C[C@@H](Cc2cccc3ccccc23)CNC1=O` came in with an inhibitory constant (Ki) in data set [1] of 140 nM. In data set [2], the permeability is listed as 24.3%. Further, the IC50 in data set [3] was determined as 740 nM. Moreover, the apparent permeability (Papp) at 5 h, 500 µM in data set [4] amounted to 19.2 ×10⁻⁶ cm/s.

In turn, `NC(=O)C[C@@H]1NC(=O)C2(CCCCC2)NC(=O)C[C@@H](c2ccc(CP(=O)(O)O)cc2)/C=C/C[C@@H](Cc2cccc3ccccc23)CNC1=O` showed a Ki in data set [1] of 16 nM. Further, in data set [2], the permeability came to 0%. This compound also displayed a half-maximal inhibitory concentration (IC50) in data set [3] of 350 nM.

In data set [3], `COC(=O)Cc1ccc([C@H]2/C=C/C[C@@H](Cc3cccc4ccccc34)CNC(=O)[C@H](CC(N)=O)NC(=O)C3(CCCCC3)NC(=O)C2)cc1` registered an IC50 of more than 20000 nM.
